Reference: ChEMBL document CHEMBL1156642, “Discovery of betamethasone 17alpha-carbamates as dissociated glucocorticoid receptor modulators in the rat” (Bioorg Med Chem, 2008)
Calls of active or inactive are those of the source. The rule behind the calls is not given here.

Assays:
[1] = target: T1, Interstitial collagenase (Homo sapiens) (UniProt P03956); assay: Inhibition of glucocorticoid-mediated human MMP1 expression in PMA stimulated A549 cells assessed as MMP1 protein level by ELISA relative to Dexamethasone; assay type: cell-based; set-up: scale not given: the % may be the effect or the level left
T1 sequence (whole entry): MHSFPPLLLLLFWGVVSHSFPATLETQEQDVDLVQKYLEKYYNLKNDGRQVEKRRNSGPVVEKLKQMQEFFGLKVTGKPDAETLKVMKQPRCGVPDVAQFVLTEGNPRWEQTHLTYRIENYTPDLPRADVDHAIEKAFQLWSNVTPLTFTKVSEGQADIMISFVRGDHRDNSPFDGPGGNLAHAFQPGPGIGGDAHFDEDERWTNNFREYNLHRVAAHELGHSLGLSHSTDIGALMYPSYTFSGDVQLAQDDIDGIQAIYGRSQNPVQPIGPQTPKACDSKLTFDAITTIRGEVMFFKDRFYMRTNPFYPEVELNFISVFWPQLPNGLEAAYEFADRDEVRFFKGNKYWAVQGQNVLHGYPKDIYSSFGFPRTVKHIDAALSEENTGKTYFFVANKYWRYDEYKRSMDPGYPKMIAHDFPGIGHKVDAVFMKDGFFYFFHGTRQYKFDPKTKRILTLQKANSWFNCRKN

Rattus norvegicus [2] = species on record: Rattus norvegicus; assay: Transactivation activity of glutamine synthase in rat skeletal muscle cells relative to Dexamethasone; assay type: cell-based
Glucocorticoid receptor = target: T2, Glucocorticoid receptor (Homo sapiens, UniProt P04150)
T2 sequence (P04150 whole entry): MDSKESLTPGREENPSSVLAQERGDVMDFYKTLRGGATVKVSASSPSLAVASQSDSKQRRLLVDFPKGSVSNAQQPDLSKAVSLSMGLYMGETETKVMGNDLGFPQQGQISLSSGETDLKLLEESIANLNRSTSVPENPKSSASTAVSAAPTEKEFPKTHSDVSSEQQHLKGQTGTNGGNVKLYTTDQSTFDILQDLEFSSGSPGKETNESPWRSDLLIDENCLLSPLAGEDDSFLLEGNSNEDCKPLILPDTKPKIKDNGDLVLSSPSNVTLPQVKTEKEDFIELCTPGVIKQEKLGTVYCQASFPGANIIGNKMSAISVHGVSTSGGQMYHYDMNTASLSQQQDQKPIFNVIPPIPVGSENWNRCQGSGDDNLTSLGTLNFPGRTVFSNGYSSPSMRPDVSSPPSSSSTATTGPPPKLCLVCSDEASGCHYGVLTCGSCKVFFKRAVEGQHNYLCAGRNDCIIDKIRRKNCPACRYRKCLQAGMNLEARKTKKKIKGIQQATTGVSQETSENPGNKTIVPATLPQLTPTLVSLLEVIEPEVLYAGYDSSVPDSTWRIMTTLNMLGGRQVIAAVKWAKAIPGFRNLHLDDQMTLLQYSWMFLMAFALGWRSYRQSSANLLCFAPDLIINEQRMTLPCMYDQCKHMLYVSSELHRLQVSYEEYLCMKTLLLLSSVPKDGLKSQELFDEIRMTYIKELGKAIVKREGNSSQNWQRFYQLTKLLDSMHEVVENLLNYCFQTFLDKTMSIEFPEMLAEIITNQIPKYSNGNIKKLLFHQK
Description: Inhibition of human glucocorticoid receptor

Progesterone receptor = target: T3, Progesterone receptor (Homo sapiens, UniProt P06401); assay: Inhibition of human progesterone receptor
T3 sequence (P06401 whole entry): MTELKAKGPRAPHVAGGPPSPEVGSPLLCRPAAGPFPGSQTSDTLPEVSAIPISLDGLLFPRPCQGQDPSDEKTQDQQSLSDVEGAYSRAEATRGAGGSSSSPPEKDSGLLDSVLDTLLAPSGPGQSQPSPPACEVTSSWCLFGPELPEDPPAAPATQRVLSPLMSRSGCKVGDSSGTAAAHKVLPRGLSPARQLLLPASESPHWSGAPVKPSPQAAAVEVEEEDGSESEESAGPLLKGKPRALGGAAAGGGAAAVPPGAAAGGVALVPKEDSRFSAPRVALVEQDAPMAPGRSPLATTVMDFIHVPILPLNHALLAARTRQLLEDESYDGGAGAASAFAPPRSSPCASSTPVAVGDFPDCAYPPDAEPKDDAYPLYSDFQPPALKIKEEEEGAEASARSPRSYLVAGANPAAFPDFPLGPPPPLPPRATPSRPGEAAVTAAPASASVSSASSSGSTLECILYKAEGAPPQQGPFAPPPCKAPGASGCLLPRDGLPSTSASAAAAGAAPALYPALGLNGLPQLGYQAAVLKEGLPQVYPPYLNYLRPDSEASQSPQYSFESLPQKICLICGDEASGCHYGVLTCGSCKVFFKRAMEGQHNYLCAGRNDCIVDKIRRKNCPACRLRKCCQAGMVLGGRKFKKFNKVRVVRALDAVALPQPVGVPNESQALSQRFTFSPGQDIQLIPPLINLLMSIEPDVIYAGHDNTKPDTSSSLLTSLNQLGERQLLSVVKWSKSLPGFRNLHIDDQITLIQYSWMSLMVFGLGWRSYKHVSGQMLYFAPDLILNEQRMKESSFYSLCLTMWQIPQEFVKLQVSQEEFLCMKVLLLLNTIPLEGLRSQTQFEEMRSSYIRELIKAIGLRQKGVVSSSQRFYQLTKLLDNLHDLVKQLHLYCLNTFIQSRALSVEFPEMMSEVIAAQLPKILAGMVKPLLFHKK

[3] = Transactivation activity of glutamine synthase in rat skeletal muscle cells; assay type: cell-based
Rattus norvegicus [4] = assay: Effect on spleen weight in Lewis rat with implanted cotton pellets at 19 mg/kg, po bid; assay type: functional
Rattus norvegicus [5] = assay: Inhibition of granuloma formation in cotton pellet implanted Lewis rat at 5.0 mg/kg, po bid; assay type: functional
Rattus norvegicus [6] = assay: Effect on thymus weight in Lewis rat with implanted cotton pellets at 19 mg/kg, po bid; assay type: functional
Rattus norvegicus [7] = assay: Effect on spleen weight in Lewis rat with implanted cotton pellets at 5.0 mg/kg, po bid; assay type: functional
Rattus norvegicus [8] = assay: Effect on body weight change in Lewis rat with implanted cotton pellets at 19 mg/kg, po bid for 7 days; assay type: functional
Rattus norvegicus [9] = assay: Effect on thymus weight in Lewis rat with implanted cotton pellets at 5.0 mg/kg, po bid; assay type: functional
Rattus norvegicus [10] = assay: Inhibition of granuloma formation in cotton pellet implanted Lewis rat at 10 mg/kg, po bid; assay type: functional
Rattus norvegicus [11] = assay: Effect on adrenal weight in Lewis rat with implanted cotton pellets at 5.0 mg/kg, po bid; assay type: functional
Rattus norvegicus [12] = assay: Effect on body weight change in Lewis rat with implanted cotton pellets at 5.0 mg/kg, po bid for 4 days; assay type: functional
Rattus norvegicus [13] = assay: Effect on plasma glucose level in Lewis rat with implanted cotton pellets at 19 mg/kg, po by oral glucose tolerance test; assay type: functional, organism-based; set-up: dose 19 mg/kg
Rattus norvegicus [14] = assay: Inhibition of granuloma formation in cotton pellet implanted Lewis rat at 19 mg/kg, po bid; assay type: functional
Rattus norvegicus [15] = assay: Effect on plasma glucose level in Lewis rat with implanted cotton pellets at 10 mg/kg, po by oral glucose tolerance test; assay type: functional, organism-based; set-up: dose 10 mg/kg
Rattus norvegicus [16] = assay: Effect on adrenal weight in Lewis rat with implanted cotton pellets at 19 mg/kg, po bid; assay type: functional
Rattus norvegicus [17] = assay: Effect on spleen weight in Lewis rat with implanted cotton pellets at 10 mg/kg, po bid; assay type: functional
Rattus norvegicus [18] = assay: Effect on adrenal weight in Lewis rat with implanted cotton pellets at 10 mg/kg, po bid; assay type: functional
Rattus norvegicus [19] = assay: Effect on body weight change in Lewis rat with implanted cotton pellets at 10 mg/kg, po bid for 4 days; assay type: functional
Rattus norvegicus [20] = assay: Effect on body weight change in Lewis rat with implanted cotton pellets at 19 mg/kg, po bid for 4 days; assay type: functional
Rattus norvegicus [21] = assay: Effect on thymus weight in Lewis rat with implanted cotton pellets at 10 mg/kg, po bid; assay type: functional
Rattus norvegicus [22] = assay: Effect on body weight change in Lewis rat with implanted cotton pellets at 10 mg/kg, po bid for 7 days; assay type: functional
Rattus norvegicus [23] = assay: Effect on body weight change in Lewis rat with implanted cotton pellets at 5.0 mg/kg, po bid for 7 days; assay type: functional

Row | Structure (SMILES) | Activity [1] [%] | Activity (Rattus norvegicus [2]) [%] | IC50 (Glucocorticoid receptor) [nM] | IC50 (Progesterone receptor) [nM] | EC50 [3] [nM] | further results
1 | CCC(C)(C)NC(=O)O[C@]1(C(=O)CO)[C@@H](C)C[C@H]2[C@@H]3CCC4=CC(=O)C=C[C@]4(C)[C@@]3(F)[C@@H](O)C[C@@]21C | 65.9 | 35 | 55.1 | – | – | –
2 | C[C@H]1C[C@H]2[C@@H]3CCC4=CC(=O)C=C[C@]4(C)[C@@]3(F)[C@@H](O)C[C@]2(C)[C@@]1(OC(=O)NC1CCCCC1)C(=O)CO | 82 | 24.7 | – | 120 | – | –
3 | C[C@H]1C[C@H]2[C@@H]3CCC4=CC(=O)C=C[C@]4(C)[C@@]3(F)[C@@H](O)C[C@]2(C)[C@@]1(OC(=O)NC12CC3CC(CC(C3)C1)C2)C(=O)CO | 84.1 | – | 5.8 | – | – | –
4 | CCC(C)NC(=O)O[C@]1(C(=O)CO)[C@@H](C)C[C@H]2[C@@H]3CCC4=CC(=O)C=C[C@]4(C)[C@@]3(F)[C@@H](O)C[C@@]21C (stereo partly drawn) | 97.5 | 54 | 0.5 | – | 0.3 | –
5 | C[C@@H](NC(=O)O[C@]1(C(=O)CO)[C@@H](C)C[C@H]2[C@@H]3CCC4=CC(=O)C=C[C@]4(C)[C@@]3(F)[C@@H](O)C[C@@]21C)c1ccccc1 | 87.5 | 92 | 5.2 | – | 1.6 | –
6 | CCCNC(=O)O[C@]1(C(=O)CO)[C@@H](C)C[C@H]2[C@@H]3CCC4=CC(=O)C=C[C@]4(C)[C@@]3(F)[C@@H](O)C[C@@]21C | 103 | 34.7 | 3.6 | 394 | – | Activity (Rattus norvegicus [4]): 258 mg; inhibition in vivo at 5 mg/kg (Rattus norvegicus [5]): 32.7%; Activity (Rattus norvegicus [6]): 82.9 mg; Activity (Rattus norvegicus [7]): 296.1 mg; Activity (Rattus norvegicus [8]): 6.6 g; Activity (Rattus norvegicus [9]): 105.5 mg; inhibition in vivo at 10 mg/kg (Rattus norvegicus [10]): 40%; Activity (Rattus norvegicus [11]): 34.7 mg; Activity (Rattus norvegicus [12]): 1.1 g; Activity (Rattus norvegicus [13]): Active; inhibition in vivo at 19 mg/kg (Rattus norvegicus [14]): 51%; Activity (Rattus norvegicus [15]): Active; Activity (Rattus norvegicus [16]): 25.6 mg; Activity (Rattus norvegicus [17]): 274.3 mg; Activity (Rattus norvegicus [18]): 34.6 mg; Activity (Rattus norvegicus [19]): 3.9 g; Activity (Rattus norvegicus [20]): 3.9 g; Activity (Rattus norvegicus [21]): 91.4 mg; Activity (Rattus norvegicus [22]): 7.1 g; Activity (Rattus norvegicus [23]): 5 g
7 | C[C@H](NC(=O)O[C@]1(C(=O)CO)[C@@H](C)C[C@H]2[C@@H]3CCC4=CC(=O)C=C[C@]4(C)[C@@]3(F)[C@@H](O)C[C@@]21C)c1ccccc1 | 93 | 49 | 1.3 | 176 | 0.6 | –
8 | C=CCNC(=O)O[C@]1(C(=O)CO)[C@@H](C)C[C@H]2[C@@H]3CCC4=CC(=O)C=C[C@]4(C)[C@@]3(F)[C@@H](O)C[C@@]21C | 106 | 16 | 17.4 | > 1000 | – | –
9 | CCCCCNC(=O)O[C@]1(C(=O)CO)[C@@H](C)C[C@H]2[C@@H]3CCC4=CC(=O)C=C[C@]4(C)[C@@]3(F)[C@@H](O)C[C@@]21C | 97.5 | 60.3 | 2.1 | – | 0.4 | –
